Reference: BindingDB's records for doi:10.1016/j.bmcl.2004.07.050 (University of Georgia, 2004)

Biological target: Integrase (HIV-1)
Test: Inhibitory activity against strand transfer in wild-type HIV-1 integrase was determined using 21-mer oligonucleotide substrate

SMILES | IC50
Nc1ccn(C2COC(COP(=O)(O)OC3CC(n4cnc5c(N)ncnc54)OC3COP(=O)(O)O)C2O)c(=O)n1 (configuration not stated) [[4-(4-amino-2-oxo-1,2-dihydropyrimidin-1-yl)-3-hydroxyoxolan-2-yl]methyl [5-(6-amino-9H-purin-9-yl)-2-[(phosphonatooxy)methyl]oxolan-3-yl] phosphate] | 65 µM
Nc1ncnc2c1ncn2C1CC(OP(=O)(O)OCC2OCC(n3cnc4c(N)ncnc43)C2O)C(COP(=O)(O)O)O1 (configuration not stated) [Phosphoric acid 4-(6-amino-purin-9-yl)-3-hydroxy-tetrahydro-furan-2-ylmethyl ester 5-(6-amino-purin-9-yl)-2-phosphonooxymethyl-tetrahydro-furan-3-yl ester] | 41 µM
